PubChem BioAssay (NCI)
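Protocol summary: plate cells (96-well), add compound at 5 concentrations, incubate 48 h, interpolate endpoints linearly. At the GI50, growth is halved. TGI: concentration producing complete growth inhibition.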

How the values were obtained:
Assay in all cases: inhibition of tumour cell growth, NCI panel, 48 h
MOLT-4 leukemia = test system: MOLT-4 leukemia
M14 melanoma = test system: M14 melanoma
OVCAR-4 ovarian = test system: OVCAR-4 ovarian
RPMI-8226 leukemia = test system: RPMI-8226 leukemia
TK-10 renal = test system: TK-10 renal
HOP-62 NSCLC = test system: HOP-62 NSCLC
UACC-62 melanoma = test system: UACC-62 melanoma
SK-OV-3 ovarian = test system: SK-OV-3 ovarian
HCT-15 colon = test system: HCT-15 colon
SN12C renal = test system: SN12C renal

SMILES	TGI (MOLT-4 leukemia) [µM]	TGI (M14 melanoma) [µM]	TGI (OVCAR-4 ovarian) [µM]	TGI (RPMI-8226 leukemia) [µM]	TGI (TK-10 renal) [µM]	TGI (HOP-62 NSCLC) [µM]	TGI (UACC-62 melanoma) [µM]	TGI (SK-OV-3 ovarian) [µM]	TGI (HCT-15 colon) [µM]	TGI (SN12C renal) [µM]	GI50 (MOLT-4 leukemia) [nM]	GI50 (M14 melanoma) [nM]	GI50 (OVCAR-4 ovarian) [nM]	GI50 (RPMI-8226 leukemia) [nM]	GI50 (TK-10 renal) [nM]	GI50 (HOP-62 NSCLC) [nM]	GI50 (UACC-62 melanoma) [nM]	GI50 (SK-OV-3 ovarian) [µM]	GI50 (HCT-15 colon) [nM]	GI50 (SN12C renal) [nM]
NC1=C(Br)C(=O)c2ncccc2C1=O	4.83	2.03	2.49	3.81	5.81	1.67	0.713	3.24	1.65	2.1										
C[C@]12CC[C@@H]3c4ccc(O)cc4CC[C@H]3[C@@H]1CC[C@@H]2NS(=O)(=O)c1cccc(C(F)(F)F)c1	16.7	13.9	12.4	14.2	13.3	17.9	10.7	15.3	5.23	5.97	3200	3880	2950	3260	4050	5180	2660	4.78	2170	2190
O=C(CCCCCCSc1nc(-c2ccccc2)cc(-c2ccccc2)n1)NO	3.3	5.94	16.7	3.1	13.5	8.06	3.85	8.84	10.6	10.5	420	1580	3050	405	2510	1930	1350	2.42	2290	2900
C/C(=C\c1ccn(-c2ccc(N)c(F)c2)n1)[C@@H]1C[C@@H]2O[C@]2(C)CCC[C@H](C)[C@H](O)[C@@H](C)C(=O)C(C)(C)[C@@H](O)CC(=O)O1	> 50		> 50	> 25.4	> 50	> 50	> 50	> 50	> 50	> 50	10.6		96.4	9.55	64	24.5	51.7	0.0262	9.13	38.9
N=c1c2c(-c3ccccc3)c(-c3ccccc3)n(Cc3ccccc3)c2ncn1CCCO	11.4	6.54	13.4	16	19.3	7.05	14.4	17.9	15.5	19.6	743	2000	1430	2860	5370	1030	1910	4.18	696	1990
NC(=O)c1oc([N+](=O)[O-])c(-c2ccccc2)c1-c1ccccc1	96.6	32.5	28.5		72.8	> 100	21.3	> 100	35.4	5.09										
COc1ccc(-c2cc(-c3ccccc3)nc(N3CCN(CCNc4ccnc5cc(Cl)ccc45)CC3)n2)cc1			4.05	4.57	4.88	4.04	11.2	22	3.14	3.34			1870	1650	2190	1970	3480	10.3	1400	1640
